Results reported in patent publication US20060069289A1, “Process for production 2-deoxyaldose compound” (MITSUI CHEMICALS, INC., priority 2003, published 2006).

Assay: Stability test of KDG to heat in water (remaining rate observed according to HPLC)
Assay type: physicochemical
Settings: for Remaining Rate of KDG: water 10 times the amount of KDG
Description: HPLC Analytic Conditions: ShodexAsahipack NH2-P50 (manufactured by Showa Denko K.K.), 50 mM sodium hydrogen phosphate aqueous solution, flow rate of 1 ml/min. and detection UV of 210 nm.
1.21 g (5.61 mmole) of KDG potassium salt was dissolved in 10 g of water (10 times the amount of KDG). pH of the solution was 7.3. Subsequently, when 64 mg (1.69 mmole: 0.3 equivalent) of granular sodium borohydride was added at 25° C., the reaction temperature increased to 33° C. Furthermore, pH after the completion of the reaction was 10.8. After the reaction was completed, when observed by HPLC, the reaction yield of metasaccharic acid was 94%. The reaction heat was observed as remarkable. […] In order to carry out the reaction with the good yield, stability to the heat of KDG was measured in the presence of water with 10 times the amount of KDG. (Table 1) (Table 2) (Table 3)
Here, the results of stability test to the KDG heat in the presence of water 10 times the amount of KDG are shown below. (Table 4)

Question: For `O=C(O)C(O)CC(O)C(O)CO` (stereo not drawn), which “Stability (in words)” value (generated product of the sodium borohydride reduction, aqueous reaction conditions) is on record?
Answer: The value was “stable”.

Question: With `O=C(O)C(=O)C[C@H](O)[C@H](O)CO` [KDG, 2-keto-3-deoxy-D-gluconic acid] as the molecule, how does the “Remaining Rate of KDG” value (pH 7.0, 25° C., 2 hours) read?
Answer: The value was 101%.

Question: And the “Remaining Rate of KDG” value (pH 7.0, 25° C., 4 hours)?
Answer: Its value is 100%.

Question: What about the “Remaining Rate of KDG” value (pH 7.0, 25° C., 21 hours) of the same molecule?
Answer: The value was 100%.

Question: What about the “Remaining Rate of KDG” value (pH 7.0, 25° C., 24 hours) of the same molecule?
Answer: Its value is 101%.

Question: And the “Remaining Rate of KDG” value (pH 7.0, 50° C., 2 hours)?
Answer: The value was 100%.

Question: And the “Remaining Rate of KDG” value (pH 7.0, 50° C., 4 hours)?
Answer: The value was 101%.

Question: What about the “Remaining Rate of KDG” value (pH 7.0, 50° C., 21 hours) of the same molecule?
Answer: The value was 100%.

Question: What about the “Remaining Rate of KDG” value (pH 7.0, 50° C., 24 hours) of the same molecule?
Answer: Its value is 99%.

Question: What about the “Remaining Rate of KDG” value (pH 8.5, 25° C., 2 hours) of the same molecule?
Answer: The value was 100%.

Question: And the “Remaining Rate of KDG” value (pH 8.5, 25° C., 4 hours)?
Answer: Its value is 99%.

Question: What about the “Remaining Rate of KDG” value (pH 8.5, 25° C., 21 hours) of the same molecule?
Answer: The value was 101%.

Question: And the “Remaining Rate of KDG” value (pH 8.5, 25° C., 24 hours)?
Answer: The value was 100%.

Question: What about the “Remaining Rate of KDG” value (pH 8.5, 50° C., 2 hours) of the same molecule?
Answer: Its value is 101%.

Question: And the “Remaining Rate of KDG” value (pH 8.5, 50° C., 4 hours)?
Answer: Its value is 100%.

Question: And the “Remaining Rate of KDG” value (pH 8.5, 50° C., 21 hours)?
Answer: The value was 99%.

Question: And the “Remaining Rate of KDG” value (pH 8.5, 50° C., 24 hours)?
Answer: The value was 98%.

Question: What about the “Remaining Rate of KDG” value (pH 10.5, 25° C., 2 hours) of the same molecule?
Answer: Its value is 102%.

Question: What about the “Remaining Rate of KDG” value (pH 10.5, 25° C., 4 hours) of the same molecule?
Answer: The value was 101%.

Question: What about the “Remaining Rate of KDG” value (pH 10.5, 25° C., 21 hours) of the same molecule?
Answer: The value was 100%.

Question: And the “Remaining Rate of KDG” value (pH 10.5, 25° C., 24 hours)?
Answer: The value was 101%.

Question: And the “Remaining Rate of KDG” value (pH 10.5, 50° C., 2 hours)?
Answer: The value was 101%.

Question: What about the “Remaining Rate of KDG” value (pH 10.5, 50° C., 4 hours) of the same molecule?
Answer: The value was 99%.

Question: What about the “Remaining Rate of KDG” value (pH 10.5, 50° C., 21 hours) of the same molecule?
Answer: The value was 94%.

Question: What about the “Remaining Rate of KDG” value (pH 10.5, 50° C., 24 hours) of the same molecule?
Answer: Its value is 93%.

Question: And the “Remaining Rate of KDG” value (pH 12.0, 4° C., 2 hours)?
Answer: Its value is 101%.

Question: And the “Remaining Rate of KDG” value (pH 12.0, 4° C., 4 hours)?
Answer: The value was 99%.

Question: And the “Remaining Rate of KDG” value (pH 12.0, 4° C., 21 hours)?
Answer: Its value is 100%.

Question: What about the “Remaining Rate of KDG” value (pH 12.0, 4° C., 24 hours) of the same molecule?
Answer: The value was 98%.

Question: And the “Remaining Rate of KDG” value (pH 12.0, 25° C., 2 hours)?
Answer: The value was 99%.

Question: What about the “Remaining Rate of KDG” value (pH 12.0, 25° C., 4 hours) of the same molecule?
Answer: The value was 95%.

Question: And the “Remaining Rate of KDG” value (pH 12.0, 25° C., 21 hours)?
Answer: Its value is 84%.

Question: And the “Remaining Rate of KDG” value (pH 12.0, 25° C., 24 hours)?
Answer: The value was 79%.

Question: And the “Stability to heat (in words)” value (pH 12.0, 50° C.)?
Answer: The value was “remarkably decomposed”.

Question: What about the “Remaining Rate of KDG” value (pH 12.0, 50° C., 2 hours) of the same molecule?
Answer: Its value is 61%.

Question: What about the “Remaining Rate of KDG” value (pH 12.0, 50° C., 4 hours) of the same molecule?
Answer: The value was 56%.
